Test results: US9956319B2, “Compositions useful as antibiofilm or antimicrobial agents and methods using same” (BAYLOR COLLEGE OF MEDICINE, priority 2012, dated 2018)

Tests used:
Format in all cases: cell-based
common pathogens = experiment: Anticolonization activity of impregnated central venous catheters, overall result in words; conditions: result in words summarising the culture results
Procedure: (§1) Catheter segments were then placed in the impregnating solution at 55° C. with agitation for 1 hour in the dark. Catheter segments were then removed from the solution and dried under a fume hood overnight in the dark. Catheter segments were rinsed with deionized water the next day and let dry for another 18 hours in the dark. After the impregnation process and drying, one-centimeter segments of impregnated catheters were individually placed in 1 ml of 10^5 cfu/ml suspensions of methicillin-sensitive Staphylococcus epidermidis (MSSE), methicillin-resistant Staphylococcus epidermidis (MRSE), methicillin-resistant Staphylococcus aureus (MRSA), Klebsiella pneumoniae, Escherichia coli, or Proteus mirabilis in trypticase soy broth (TSB) at 37° C. for 24 hours. One-centimeter segments of non-impregnated catheters were also incubated individually in each bacterial suspension at 37° C. for 24 hours as controls. Catheter segments were removed from each bacterial suspension after this period, shaken to remove excess broth containing free-floating bacteria from their surfaces, placed in 1 ml of normal saline, sonicated for 5 minutes, and vortexed for 30 seconds.
(§2) Aliquots of each suspension and subsequent dilutions were cultured quantitatively.
(§3) To evaluate the anticolonization/antimicrobial activity of central venous catheters treated with lipoamide, segments of 7 French triple lumen polyurethane central venous catheters were impregnated with lipoamide using the same patented method described in Example 1 (U.S. Pat. No. 6,589,591) with 100 mg/ml (final solution volume) of the agent. After the impregnation process and drying, Catheter segments were then placed in the impregnating solution at 55° C. with agitation for 1 hour in the dark. Catheter segments were then removed from the solution and dried under a fume hood overnight in the dark. Catheter segments were rinsed with deionized water the next day and let dry for another 18 hours in the dark. […]

[1] = test system: methicillin-resistant Staphylococcus aureus (MRSA); experiment: Bacterial colony counts extracted from impregnated central venous catheters after incubation in bacterial suspension; conditions: 10^5 cfu/ml suspension in TSB, 37° C., 24 hours
Procedure: (§4) In this example, segments of 7 French triple lumen polyurethane central venous catheters were impregnated with α-lipoic acid using the method described elsewhere (U.S. Pat. No. 6,589,591) and were subjected to zones of inhibition. Briefly, α-lipoic acid was dissolved in 88% formic acid (at a final solution concentration of 50 mg/ml). 85% ortho-Phosphoric acid and glycerol were then added to the solution at 79:8:13 (v/v/v) (formic acid:ortho-phosphoric acid:glycerol). After mixing the solution, 300 mg/ml of potassium chloride was added to the final solution and mixed.
as §1, §2
(§5) To evaluate the anticolonization/antimicrobial activity of central venous catheters treated with lipoamide, segments of 7 French triple lumen polyurethane central venous catheters were impregnated with lipoamide using the same patented method described in Example 1 (U.S. Pat. No. 6,589,591) with 100 mg/ml (final solution volume) of the agent. After the impregnation process and drying, Catheter segments were then placed in the impregnating solution at 55° C. with agitation for 1 hour in the dark. Catheter segments were then removed from the solution and dried under a fume hood overnight in the dark. Catheter segments were rinsed with deionized water the next day and let dry for another 18 hours in the dark. After the impregnation process and drying, one-centimeter segments of impregnated catheters were individually placed in 1 ml of 10^5 cfu/ml suspensions of MRSE, MRSA, or P. aeruginosa in trypticase soy broth (TSB) at 37° C. for 24 hours. One-centimeter segments of non-impregnated catheters were also incubated individually in each bacterial suspension at 37° C. for 24 hours as controls. Catheter segments were removed from each bacterial suspension after this period, shaken to remove excess broth containing free-floating bacteria from their surfaces, placed in 1 ml of normal saline, sonicated for 5 minutes, and vortexed for 30 seconds.
as §3, with “dihydrolipoic acid,” for “lipoamide,”, “dihydrolipoic acid” for “lipoamide”, “25” for “100”

[2] = test system: methicillin-resistant Staphylococcus epidermidis (MRSE); experiment: as above; conditions: 10^5 cfu/ml suspension in TSB, 37° C., 24 hours
Procedure: as §4, §1, §2, §5
as §3, with “dihydrolipoic acid,” for “lipoamide,”, “dihydrolipoic acid” for “lipoamide”, “25” for “100”

[3] = catheter impregnated with 25 mg/ml
[4] = catheter impregnated with 100 mg/ml
[5] = catheter impregnated with 50 mg/ml

SMILES	bacterial cells adhered to treated catheter segments compared to control uncoated catheter segments (common pathogens)	Mean bacterial colony counts extracted from catheter [1, 3]	Mean bacterial colony counts extracted from catheter [2, 3]	Mean bacterial colony counts extracted from catheter [1, 4]	Mean bacterial colony counts extracted from catheter [2, 4]	Bacterial colony counts extracted from central venous catheters [1, 5]	Bacterial colony counts extracted from central venous catheters [2, 5]
O=C(O)CCCCC(S)CCS (stereo not drawn) [Dihydrolipoic acid, 6,8-dimercaptooctanoic acid]	substantially fewer bacterial cells adhered to them	50	380	–	–	–	–
NC(=O)CCCCC1CCSS1 (stereo not drawn) [Lipoamide, lipoamide]	substantially fewer or no bacterial cells adhered to them	–	–	0	0	–	–
O=C(O)CCCCC1CCSS1 (stereo not drawn) [Lipoic acid, 1,2-dithiolane-3-pentanoic acid]	substantially fewer or no bacterial cells adhered to them	–	–	–	–	0	60
